# Laboratory results: patent US9518254B2, “Compositions and methods for identifying enzyme and transport protein inhibitors” (San Diego State University Research Foundation, priority 2009, dated 2016)
# Experiments:
# HIV-1 protease (PR) [1] = format: cell-based; details: SupT1 PR/Gal4 clone, 1 μg/mL Dox; for inhibitor concentration resulting in eGFP activation: analyzed 50 hrs later, range tested 1 nM to 20 μM
# [2] = tested on: tet-responsive element (TRE) / rtTA; assay: Doxycycline activation titration of clonal SupT1 cells (Tet-On induction of eGFP reporter); format: cell-based
# Excerpt: To obtain an inducible cell line, we utilized the tetracycline inducible system (Tet-On). For this purpose we constructed two lentiviral vectors; one harboring a 7× Tetracycline Response Element (TRE) upstream the gene of interest and another expressing the reverse tet-transactivator (rtTA) coupled to an IRES-mCherry cassette to corroborate rtTA expression. In this system, the TRE element is bound and activated by rtTA only in the presence of an inducer (Tet or Dox). Gal4, PR/Gal4 and PRm/Gal4 were all transferred into the TRE inducible vector (see Figures).
# In order to optimize the assay for maximal Gal4, PR/Gal4 or PRm/Gal4 induction, we analyzed the effect of increasing levels of Dox. Cells with 0, 50, 100, 250, 500, 750, 1,000, and 2,000 ng/mL Dox were either treated with 10 uM DMSO or 10 uM Indinavir and analyzed 32 hours later. TRE-Gal4 cells reached saturation with Doxycycline at about 1,000 ng/mL whether Indinavir was present or not. […] Again, as with transiently transfected 293 cells, TRE-PR/Gal4 cells had little to non-detectable eGFP expression at any given Dox concentration in the absence of 10 μM Indinavir.
# (§1) FIG. 22 graphically illustrates data determining the optimal conditions for activating the assay to screen for PR inhibition. FIG. 22A graphically illustrates a Doxycycline titration. Clonal SupT1 cells harboring an inducible Gal4, PR/Gal4 or PRm/Gal4 were pre-incubated in a 96 well plate with either DMSO or 10 μM Indinavir and then either left untreated, or activated with […] of Dox. Cells were analyzed by flow cytometry and gated to determine the number of cells positive for eGFP expression. FIG. 22B graphically illustrates a time course of eGFP Induction in response to Doxycyline activation in the presence of DMSO or a PI. SupT1 clones harboring Gal4, PR/Gal4, or PRm/Gal4 were pre-incubated in a 96 well plate with either DMSO or 10 μM Indinavir and then activated with 1 μg/mL Dox. Cells were analyzed at either 4, 8, 12, 16, 20, 25, 50 or 75 hours by flow cytometry and gated for eGFP positive expression.
# HIV-1 protease (PR) [3] = format: cell-based
# Excerpt: Finally, cells were infected with virus encoding the reporter, rtTA and inducible wild-type PR/Gal4 (pH-TRE-PR/Gal4) to test the ability for this system in T-cells to indicate the levels of PR activity.
# Finally, individual cells from these sorted populations were sorted into a 96 well plate based on the lack of eGFP expression. Clonal cell lines obtained from this experiment were later activated under the same conditions described above, and screened for the individual clones which responded as desired (minimal background and maximal eGFP activation). […] These clones were then expanded and further tested in the following experiments.
# To determine the optimal time point for the analysis of eGFP expression in the presence of inhibitor, cells were activated with Dox and analyzed by flow cytometry 4, 8, 12, 16, 20, 25, 50, or 75 hours later. Six-well plates containing 250K cells per well in 3 mL media were treated either with DMSO alone as control, or 1 μg/mL Dox and 10 μM Indinavir.
# A 2 ml reaction containing 4 μl of 5 μg/mL Polybrene (Hexadimethrene Bromide, Sigma), 500K SupT1 cells in RPMI (10% FCS, L-glutamine, Pen-strep) and 250 μl frozen viral stocks was mixed, added to wells in 6-well plates, and spun in a hanging bucket rotors Becton Dickinson centrifuge at 1500 RPM, for 120′ at 32° C. Cells were re-suspended and placed in a 37° C. incubator for the analysis of expression at least 72 hours post-infection.
# Flow Cytometry was performed on a BD FACSAria with 488 nm and 633 nm lasers. Data was collected on FACSDiva 6.1.1 software and then exported to FlowJo. eGFP expression was detected in the FITC channel and mCherry expression was detected on the PE-Texas-Red channel. Cells were first gated for size and granularity (FSC-A vs SSC-A) followed by doublet gating (FSC-A vs FSC-W and SSC-A vs. SSC-W). Sorted populations were gated on PE-TexasRed vs FITC plot. 250K cells were collected for each sample into 0.5 mL fetal calf serum (FCS) and 1 mL RPMI. Cells were then spun down at 1500 RPM and resuspended in fresh media in 6-well plates. Cells were allowed to grow for at least seven days to allow for expansion and loss of previously activated eGFP expression.
# as §1
# HIV-1 protease (PR) [4] = format: cell-based; details: HEK293T cells pre-treated with 10 uM inhibitor, co-transfected with reporter and pcDNA-PR/Gal4
# Method: It was of critical importance to verify the ability for the PR/Gal4 fusion to activate the reporter eGFP by the addition of PR inhibitors. For that purpose, 293T cells were pre-treated with 10 μM Indinavir and then co-transfected with reporter and pcDNA-PR/Gal4 vectors.
# 293T cells were transfected as follows. 15 μl of 2 mg/mL Polyethylenimine linear 25 kD (Polysciences, Inc.) were added to 125 μl of DMEM in a 1.8 ml Eppendorf tube. 3 μg of each DNA was added drop-wise to each tube. Tubes were mixed and incubated for 20 min at RT. This mixture was then added drop-wise to 293T cells in a 10 cm plate at ˜60-75% confluence. Cells were then analyzed by fluorescence microscopy and/or flow cytometry 24 hrs post transfection.
# Top Panel: Fluorescence microscopy of eGFP expression in HEK293T cells 24 hours post transfection with the reporter vector (pFR), or co-transfection with the reporter vector plus either the Gal4, PR/Gal4, or PRm/Gal4 vectors. Bottom panel: HEK293T cells were analyzed by flow cytometry at 24 hours post transfection with the same conditions top panel. Gates were drawn to determine the ability to identify cells with an active PI. […] Quantification of eGFP expression in HEK293T transfected with various assay elements. The numbers of cells under various conditions were quantified for eGFP levels indicative of PR inhibition. Results shown are an average of 3 experiments.
# SupT1 cells [5] = details: human, 50 h
# Method: (§2) The range chosen extended from 1 nM to 20 μM.
# (§3) The selected SupT1 clone expressing rtTA and mCherry, the 5×UAS-eGFP reporter and an inducible PR/Gal4 were activated with 1 μg/mL and incubated with various concentrations (1, 10, 50, 100, 500, 1000, 5000, 10000 or 20000 ng/mL) of an FDA approved PI: Either Amprenavir, Atazanavir, Darunavir, Indinavir, Lopinavir, Nelfinavir, Ritonavir, Saquinavir, or Tipranavir. Cells were then analyzed 50 hrs later for eGFP expression as determined by flow cytometry on a BD FACSAria.
# HIV-1 protease (PR) [6] = assay: Expression of GFP-PR fusion in cells transfected with pcDNA-GFP-PR (fluorescence microscopy); format: cell-based; details: inhibitor added at 0 and 24 h post transfection
# Excerpt: In one embodiment, to achieve low levels of protease, e.g., PR, expression in mammalian cells, a tetracycline (Tet) inducible system is used. FIG. 3 illustrates by fluorescence microscopy use of an exemplary vector of the invention, a Tet-inducible HIV-based self-inactivating vector, that allows regulated expression of the gene of interest. In this case, we have used the enhanced green fluorescent protein (eGFP) as the ectopic gene. This vector allows different levels of protein expression. Tight repression and expression of PR at low levels may be crucial to avoid the possible side effects of PR. […] FIG. 3 illustrates by fluorescence microscopy HeLa cells infected with a Tet inducible HIV-based self-inactivating vector. The cells were incubated with 1 μg/ml Tet and eGFP expression was observed by fluorescence microscopy 24 and 72 h post addition of Tet. […]
# In summary, FIG. 4 illustrates fluorescent microscopy analysis of cells transfected with pcDNA control (Invitrogen) and pcDNA-GFP-PR. GFP expression was analyzed 24 h post transfection. […]
# In summary, FIG. 5 graphically illustrates flow cytometry analysis of cells expressing PR-GFP fusion. Cells transfected with pcDNA (control) or pcDNA-GFP-PR fusions were collected 48 hr post-transfection and analyzed for GFP expression. […]
# SupT1 cells [7] = assay: Cell death in reporter SupT1 T-cell clones incubated with PR inhibitors; details: SupT1 PR/Gal4 clone, 50 hrs
# Method: as §2, §3
compound,measurement,setting,value
COC(=O)N[C@H](C(=O)N[C@@H](Cc1ccccc1)[C@@H](O)CN(Cc1ccc(-c2ccccn2)cc1)NC(=O)[C@@H](NC(=O)OC)C(C)(C)C)C(C)(C)C [Atazanavir],inhibitor concentration resulting in eGFP activation,HIV-1 protease (PR) [1],1 nM
CC(C)CN(C[C@@H](O)[C@H](Cc1ccccc1)NC(=O)O[C@H]1CO[C@H]2OCC[C@H]21)S(=O)(=O)c1ccc(N)cc1 [Darunavir],inhibitor concentration resulting in eGFP activation,HIV-1 protease (PR) [1],1 nM
C[C@H]1c2cccc(O)c2C(=O)C2=C(O)[C@]3(O)C(=O)C(C(N)=O)=C(O)[C@@H](N(C)C)[C@@H]3[C@@H](O)[C@@H]21 [Doxycycline],Dox concentration at saturation of eGFP induction,"[2]; TRE-Gal4 cells, with or without 10 uM Indinavir, 32 hours","about 1,000 ng/mL"
same,Dox concentration at maximal eGFP induction,"[2]; TRE-PR/Gal4 cells pre-incubated with 10 μM Indinavir, 32 hours",around 500 ng/mL
same,Dox concentration at saturation of eGFP induction,"[2]; TRE-PRm/Gal4 cells, uninhibited and Indinavir-treated, 32 hours",around 250 ng/mL
same,Dox concentration at which activation is saturated,[2]; clonal SupT1 cells pre-incubated with DMSO or 10 μM Indinavir,around 1 μg/mL
CC(C)(C)NC(=O)[C@@H]1CN(Cc2cccnc2)CCN1C[C@@H](O)C[C@@H](Cc1ccccc1)C(=O)N[C@H]1c2ccccc2C[C@H]1O [Indinavir],activation of PR/Gal4 clones (GFP positive),"HIV-1 protease (PR) [3]; SupT1 PR/Gal4 clones, Dox 1 μg/mL, PI 10 μM",~90%
same,time of initial induction of eGFP expression,"HIV-1 protease (PR) [3]; SupT1 clone, 1 μg/mL Dox and 10 μM inhibitor",8 h
same,eGFP expression (positive cells) by 50 hours,"HIV-1 protease (PR) [3]; SupT1 clone, 1 μg/mL Dox and 10 μM inhibitor, 50 hours",~100%
same,time at which activation of clones reaches max,"HIV-1 protease (PR) [3]; clonal SupT1 cells in 96-well plates, pre-incubation with 10 μM PI, Dox activation",around 48 hrs
same,eGFP induction in presence of inhibitor,"HIV-1 protease (PR) [3]; non-clonal SupT1 cells with reporter, rtTA and pH-TRE-PR/Gal4, 1 μg/mL Dox and 10 μM inhibitor",large induction of eGFP expression
same,eGFP induction by PR/Gal4 fusion in presence of inhibitor,HIV-1 protease (PR) [4],drastic induction
same,inhibitor concentration inducing nearly full activation of eGFP reporter,HIV-1 protease (PR) [1]; 50 hrs,5 µM
same,level of reporter activation at low concentrations,"HIV-1 protease (PR) [1]; 50 hrs, compared with the other FDA-approved PIs",lowest levels of reporter activation at low concentrations
Cc1cccc(C)c1OCC(=O)N[C@@H](Cc1ccccc1)[C@@H](O)C[C@H](Cc1ccccc1)NC(=O)[C@H](C(C)C)N1CCCNC1=O [Lopinavir],"concentration resulting in significant cell death, with decline in number of eGFP positive cells",SupT1 cells [5],around 1 uM
Cc1c(O)cccc1C(=O)N[C@@H](CSc1ccccc1)[C@H](O)CN1C[C@H]2CCCC[C@H]2C[C@H]1C(=O)NC(C)(C)C [Nelfinavir],"concentration resulting in significant cell death, with decline in number of eGFP positive cells",SupT1 cells [5],around 1 uM
CC(C)(C)NC(=O)[C@@H]1C[C@@H]2CCCC[C@@H]2CN1C[C@@H](O)[C@H](Cc1ccccc1)NC(=O)[C@H](CC(N)=O)NC(=O)c1ccc2ccccc2n1 [Saquinavir],expression of N-terminal GFP-PR fusion in presence of inhibitor,HIV-1 protease (PR) [6],highly expressed
same,concentration with significant decline in the number of eGFP positive cells (cell death),SupT1 cells [7],20 µM
CCC[C@@]1(CCc2ccccc2)CC(O)=C([C@H](CC)c2cccc(NS(=O)(=O)c3ccc(C(F)(F)F)cn3)c2)C(=O)O1 [Tipranavir],inhibitor concentration inducing nearly full activation of eGFP reporter,HIV-1 protease (PR) [1]; 50 hrs,5 µM
